Source: patent US8962641B2, “Pyrimidine-substituted pyrrolidine derivatives, pharmaceutical compositions and uses thereof” (Boehringer Ingelheim International GmbH, priority 2013, dated 2015)

target: human ACC2 (Homo sapiens (Human), UniProt O00763); assay: ACC2 assay (spectrophotometric 384 well assay, NADH-linked kinetic method); type: biochemical; settings: hACC2 construct lacking 128 N-terminal amino acids; coupled lactate dehydrogenase/pyruvate kinase reaction, 340 nm, 25° C.
How it was run: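 Baculovirus/insect-cell human ACC2, anion-exchange purified; ADP formation coupled to pyruvate kinase/lactate dehydrogenase, NADH loss followed at 340 nm, 25° C, 15 min. Final 200 μM NADH and acetyl-CoA, 500 uM ATP; vehicle and no-acetyl-CoA wells set 100% and 0%.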

Chain of human ACC2 (O00763 129-2458): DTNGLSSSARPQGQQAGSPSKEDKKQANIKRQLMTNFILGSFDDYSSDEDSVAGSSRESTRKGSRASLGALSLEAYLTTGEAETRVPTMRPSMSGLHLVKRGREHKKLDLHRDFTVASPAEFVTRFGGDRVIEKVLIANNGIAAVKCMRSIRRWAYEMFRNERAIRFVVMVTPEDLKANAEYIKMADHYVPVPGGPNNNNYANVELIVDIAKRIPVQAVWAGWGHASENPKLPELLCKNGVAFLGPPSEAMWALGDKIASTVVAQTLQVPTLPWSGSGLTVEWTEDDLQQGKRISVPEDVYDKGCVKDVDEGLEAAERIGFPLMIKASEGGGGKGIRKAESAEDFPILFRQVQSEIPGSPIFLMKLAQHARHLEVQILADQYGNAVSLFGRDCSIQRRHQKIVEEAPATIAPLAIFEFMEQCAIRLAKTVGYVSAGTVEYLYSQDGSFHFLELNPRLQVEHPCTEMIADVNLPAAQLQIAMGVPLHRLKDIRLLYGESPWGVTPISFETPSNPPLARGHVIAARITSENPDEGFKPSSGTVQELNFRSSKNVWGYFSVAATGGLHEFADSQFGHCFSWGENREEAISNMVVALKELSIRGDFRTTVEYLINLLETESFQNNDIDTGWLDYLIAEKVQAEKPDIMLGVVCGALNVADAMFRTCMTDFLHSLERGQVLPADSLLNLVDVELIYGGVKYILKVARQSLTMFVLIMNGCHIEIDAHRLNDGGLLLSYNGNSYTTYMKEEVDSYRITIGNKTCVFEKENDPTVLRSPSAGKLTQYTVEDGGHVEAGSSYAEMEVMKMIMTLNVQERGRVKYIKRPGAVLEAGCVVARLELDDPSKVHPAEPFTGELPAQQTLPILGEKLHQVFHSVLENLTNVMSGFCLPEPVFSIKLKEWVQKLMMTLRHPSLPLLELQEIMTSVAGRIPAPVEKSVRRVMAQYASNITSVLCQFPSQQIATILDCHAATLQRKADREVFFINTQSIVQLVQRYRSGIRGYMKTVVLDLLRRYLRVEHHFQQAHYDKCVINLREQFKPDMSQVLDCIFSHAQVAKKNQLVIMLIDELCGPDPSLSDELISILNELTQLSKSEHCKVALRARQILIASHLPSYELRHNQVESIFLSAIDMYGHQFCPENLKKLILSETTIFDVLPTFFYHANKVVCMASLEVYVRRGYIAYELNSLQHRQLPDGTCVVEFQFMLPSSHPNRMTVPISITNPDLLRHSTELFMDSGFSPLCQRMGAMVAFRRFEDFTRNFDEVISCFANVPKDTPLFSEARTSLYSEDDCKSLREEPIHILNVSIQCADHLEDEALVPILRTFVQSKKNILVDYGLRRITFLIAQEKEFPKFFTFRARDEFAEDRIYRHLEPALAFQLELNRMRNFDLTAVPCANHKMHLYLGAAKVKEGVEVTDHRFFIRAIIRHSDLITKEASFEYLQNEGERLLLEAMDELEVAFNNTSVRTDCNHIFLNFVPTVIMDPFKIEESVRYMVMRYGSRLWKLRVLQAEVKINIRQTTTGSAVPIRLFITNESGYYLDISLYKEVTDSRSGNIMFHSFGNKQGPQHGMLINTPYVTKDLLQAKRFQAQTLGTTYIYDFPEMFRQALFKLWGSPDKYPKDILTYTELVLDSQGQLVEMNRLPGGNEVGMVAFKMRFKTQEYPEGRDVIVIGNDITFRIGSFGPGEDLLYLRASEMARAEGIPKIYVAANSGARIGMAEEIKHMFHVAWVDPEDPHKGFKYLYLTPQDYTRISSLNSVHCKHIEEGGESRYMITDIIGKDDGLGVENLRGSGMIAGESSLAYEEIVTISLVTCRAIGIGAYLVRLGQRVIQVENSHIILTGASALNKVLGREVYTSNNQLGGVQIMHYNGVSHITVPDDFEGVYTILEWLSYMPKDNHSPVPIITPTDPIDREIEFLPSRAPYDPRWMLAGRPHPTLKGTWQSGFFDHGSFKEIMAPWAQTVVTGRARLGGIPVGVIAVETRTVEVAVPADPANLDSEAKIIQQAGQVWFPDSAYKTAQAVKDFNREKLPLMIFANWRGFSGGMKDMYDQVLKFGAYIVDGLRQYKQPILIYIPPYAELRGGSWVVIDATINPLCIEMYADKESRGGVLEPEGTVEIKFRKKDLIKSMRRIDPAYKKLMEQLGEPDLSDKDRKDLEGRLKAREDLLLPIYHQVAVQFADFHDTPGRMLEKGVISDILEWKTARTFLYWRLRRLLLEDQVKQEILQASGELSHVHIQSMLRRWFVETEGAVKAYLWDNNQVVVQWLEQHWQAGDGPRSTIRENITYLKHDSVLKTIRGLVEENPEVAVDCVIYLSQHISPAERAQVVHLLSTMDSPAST

| IC50 | SMILES |
| --- | --- |
| 1230 nM | CC(=O)N[C@@H](C)c1ccc(O[C@@H]2CCN(c3nc(N4C[C@@H]5CC[C@@H](C4)O5)ncc3Cl)C2)cc1 [Example 8.280] |
| 372 nM | CC(=O)N[C@@H](C)c1ccc(O[C@@H]2CCN(c3nc(N4CCC[C@@H]4C)ncc3Cl)C2)cc1 [Example 8.281] |
| 157 nM | CC(=O)N[C@@H](C)c1ccc(O[C@@H]2CCN(c3nc(N4CCC[C@@H]4C)ncc3F)C2)cc1 [Example 8.282] |
| 57 nM | CC(=O)N[C@@H](C)c1ccc(O[C@@H]2CCN(c3nc(N4CCC[C@H]4C)ncc3F)C2)cc1 [Example 8.283] |
| 240 nM | CC(=O)N[C@@H](C)c1ccc(O[C@@H]2CCN(c3ncnc(N4CCC[C@@H]4C)c3F)C2)cc1 [Example 8.284] |
| 89 nM | CC(=O)N[C@@H](C)c1ccc(O[C@@H]2CCN(c3nc(N4CCC[C@H]4C)ncc3Cl)C2)cc1 [Example 8.285] |
| 165 nM | CC(=O)N[C@@H](C)c1ccc(O[C@@H]2CCN(c3ncnc(N4CCC[C@H]4C)c3F)C2)cc1 [Example 8.286] |
| 455 nM | CC(=O)N[C@@H](C)c1ccc(O[C@@H]2CCN(c3ncnc(N4CC[C@@H](F)C4)c3F)C2)cc1 [Example 8.287] |
| 874 nM | CC(=O)N[C@@H](C)c1ccc(O[C@@H]2CCN(c3nc(N(CCO)C4CC4)ncc3F)C2)cc1 [Example 8.288] |
| 484 nM | CC(=O)N[C@@H](C)c1ccc(O[C@@H]2CCN(c3nc(N4CC(F)(F)C4)ncc3Cl)C2)cc1 [Example 8.289] |
| 765 nM | CC(=O)N[C@@H](C)c1ccc(O[C@@H]2CCN(c3nc(N(C)C4CCOCC4)ncc3F)C2)cc1 [Example 8.290] |
| 111 nM | CC(=O)N[C@@H](C)c1ccc(O[C@@H]2CCN(c3ncnc(N4CC[C@](C)(O)C4)c3F)C2)cc1 [Example 8.291] |
| 359 nM | CC(=O)N[C@@H](C)c1ccc(O[C@@H]2CCN(c3ncnc(NCC4(O)CCC4)c3F)C2)cc1 [Example 8.292] |
| 50 nM | CC(=O)N[C@@H](C)c1ccc(O[C@@H]2CCN(c3ncnc(N4CC[C@H](C)C4)c3F)C2)cc1 [Example 8.293] |
| 52 nM | CC(=O)N[C@@H](C)c1ccc(O[C@@H]2CCN(c3ncnc(N4CC[C@@H](C)C4)c3F)C2)cc1 [Example 8.294] |
| 790 nM | COc1c(N2CC[C@@H](Oc3ccc([C@H](C)NC(C)=O)cc3)C2)ncnc1N1CCC(C)(O)C1 (stereo partly drawn) [Example 8.295] |
| 113 nM | CC(=O)N[C@@H](C)c1ccc(O[C@@H]2CCN(c3ncnc(NCC(C)(C)O)c3Cl)C2)cc1 [Example 8.296] |
| 224 nM | CC(=O)N[C@@H](C)c1ccc(O[C@@H]2CCN(c3ncnc(N4CCC(C)(O)C4)c3Cl)C2)cc1 (stereo partly drawn) [Example 8.297] |
| 156 nM | CCCNc1ncnc(N2CC[C@@H](Oc3ccc([C@H](C)NC(C)=O)cc3)C2)c1Cl [Example 8.298] |
| 70 nM | CC(=O)N[C@@H](C)c1ccc(O[C@@H]2CCN(c3ncnc(NCC4(O)CCC4)c3Cl)C2)cc1 [Example 8.299] |
| 537 nM | COc1c(NCC2(O)CCC2)ncnc1N1CC[C@@H](Oc2ccc([C@H](C)NC(C)=O)cc2)C1 [Example 8.300] |
| 809 nM | CCCNc1ncnc(N2CC[C@@H](Oc3ccc([C@H](C)NC(C)=O)cc3)C2)c1OC [Example 8.301] |
| 202 nM | CCCNc1ncc(F)c(N2CC[C@@H](Oc3ccc([C@H](C)NC(C)=O)cc3)C2)n1 [Example 8.302] |
| 301 nM | CC(=O)N[C@@H](C)c1ccc(O[C@@H]2CCN(c3nc(NCC4CC4)ncc3F)C2)cc1 [Example 8.303] |

| IC50 | SMILES |
| --- | --- |
| 510 nM | CC(=O)N[C@@H](C)c1ccc(O[C@@H]2CCN(c3nc(NCC(F)F)ncc3F)C2)cc1 [Example 8.304] |
| 176 nM | CC(=O)N[C@@H](C)c1ccc(O[C@@H]2CCN(c3ncnc(NCC4(O)CC4)c3Cl)C2)cc1 [Example 8.305] |
| 94 nM | CCC(=O)Nc1nc(C)c(C(=O)N[C@@H](C)c2ccc(O[C@@H]3CCN(c4ncnc(NCC5CC5)c4Cl)C3)cc2)s1 [Example 8.307] |
| 105 nM | CC(=O)N[C@@H](C)c1ccc(O[C@@H]2CCN(c3ncnc(NC4CCCC4)c3Cl)C2)cc1 [Example 8.308] |
| 42 nM | CC(=O)N[C@@H](C)c1ccc(O[C@@H]2CCN(c3ncnc(NCC4CC4)c3Cl)C2)cc1 [Example 8.309] |
| 52 nM | CC(=O)N[C@@H](C)c1ccc(O[C@@H]2CCN(c3ncnc(N4CC[C@H](C)C4)c3Cl)C2)cc1 [Example 8.310] |
| 62 nM | CC(=O)N[C@@H](C)c1ccc(O[C@@H]2CCN(c3ncnc(NCC4CCC4)c3Cl)C2)cc1 [Example 8.311] |
| 286 nM | CCCNc1ncnc(N2CC[C@@H](Oc3ccc([C@H](C)NC(=O)c4sc(NC(=O)CC)nc4C)cc3)C2)c1Cl [Example 8.312] |
| 306 nM | CC(=O)N[C@@H](C)c1ccc(O[C@@H]2CCN(c3ncnc(NCC4CCCO4)c3Cl)C2)cc1 (stereo partly drawn) [Example 8.313] |
| 345 nM | CCC(C)Nc1ncnc(N2CC[C@@H](Oc3ccc([C@H](C)NC(C)=O)cc3)C2)c1Cl (stereo partly drawn) [Example 8.314] |
| 552 nM | CCC(=O)Nc1nc(C)c(C(=O)N[C@@H](C)c2ccc(O[C@@H]3CCN(c4ncnc(NCC(F)F)c4Cl)C3)cc2)s1 [Example 8.315] |
| 580 nM | CC(=O)N[C@@H](C)c1ccc(O[C@@H]2CCN(c3ncnc(NCC4CCCCO4)c3Cl)C2)cc1 (stereo partly drawn) [Example 8.316] |
| 703 nM | CCCNc1ncnc(N2CC[C@@H](Oc3ccc([C@H](C)NC(=O)c4sc(NC(=O)CC)nc4C)cc3)C2)c1F [Example 8.318] |
| 742 nM | CCCNc1ncnc(N2CC[C@@H](Oc3ccc([C@H](C)NC(=O)c4sc(NC(=O)CC)nc4C)cc3)C2)c1OC [Example 8.320] |
| 830 nM | CCC(=O)Nc1nc(C)c(C(=O)N[C@@H](C)c2ccc(O[C@@H]3CCN(c4ncnc(NCC(F)F)c4OC)C3)cc2)s1 [Example 8.321] |
| 725 nM | COc1cccc(-c2nccc(N3CC[C@@H](Oc4ccc([C@H](C)NC(C)=O)cc4)C3)n2)c1 [Example 9.1, N—((S)-1-(4-((R)-1-(2-(3-methoxyphenyl)pyrimidin-4-yl)pyrrolidin-3-yloxy)phenyl)ethyl)acetamide] |
| 987 nM | CC(=O)N[C@@H](C)c1ccc(O[C@@H]2CCN(c3ncnc(C4CC4)c3Cl)C2)cc1 [Example 9.2] |
| 342 nM | CC(=O)N[C@@H](C)c1ccc(O[C@@H]2CCN(c3ncnc(C4CCC4)c3F)C2)cc1 [Example 9.3] |
| 464 nM | CC(=O)N[C@@H](C)c1ccc(O[C@@H]2CCN(c3ncnc(C4CCCC4)c3F)C2)cc1 [Example 9.4] |
| 1010 nM | CC(=O)N[C@@H](C)c1ccc(O[C@@H]2CCN(c3ncnc(C4CC4)c3F)C2)cc1 [Example 9.5] |
| 235 nM | CC(=O)N[C@@H]1CC[C@H](C(=O)N[C@@H](C)c2ccc(O[C@@H]3CCN(c4ncnc(OCC5CC5)c4F)C3)cc2)C1 [Example 10.1, (1S,3R)-3-acetamido-N—((S)-1-(4-((R)-1-(6-(cyclopropylmethoxy)-5-fluoropyrimidin-4-yl)pyrrolidin-3-yloxy)phenyl)ethyl)cyclopentanecarboxamide] |
| 174 nM | COCC(=O)N[C@@H]1CC[C@H](C(=O)N[C@@H](C)c2ccc(O[C@@H]3CCN(c4ncnc(OCC5CC5)c4F)C3)cc2)C1 [Example 10.2] |
| 120 nM | C[C@H](NC(=O)C1CC1)c1ccc(O[C@@H]2CCN(c3nc(N4CCC5(CC5)C4)ncc3F)C2)cc1 [Example 10.4] |
| 295 nM | C[C@H](NC(=O)C1CC1)c1ccc(O[C@@H]2CCN(c3nc(N4CCOCC4)ncc3F)C2)cc1 [Example 10.5] |
